Results as given in US9109045B2, “Mass producing growth factor using adipose derived adult stem cells” (PROSTEMICS CO., LTD., priority 2006, dated 2015).
“And” between values parts separate entries of the source, which are not always exact repeats. Identical values can stand only once. Like-named read-outs stand apart in the source and are kept apart here.

What was measured:
keratinocytes = assay: Defensive effect against exposure of keratinocytes to UV light (cell viability); format: cell-based; details: UV light 40 W double lamp 8 minutes, viability after 24 hours, 2.5 cc medium in 5 cc KGM or 2 uM retinol
Protocol: The defensive effect of growth factors secreted from adipose-derived stem cells against the exposure of keratinocytes UV light was tested in the following manner. Keratinocytes were dispensed into a 6-well plate at a suitable cell concentration in KGM (karatinocyte growth medium; Clonetics.) and incubated in a 5% carbon dioxide incubator at 37° C. To the medium, 2.5 cc of 100% ADSC 3-passage 3-day cultured medium was added to adjust the KGM to 5 cc. Also, 2 uM retinol was added to 5 cc of KGM. Also, as a negative control group, 5 cc of KGM alone was administered to keratinocytes. Each of the test samples was stabilized for 4 hours, such that the raw materials were sufficiently dispersed. After that, each of the test samples was irradiated with UV light using a 40 W double lamp for 8 minutes in an aseptic laboratory. After 24 hours, the UV defense function of the test sample was measured by determining the viability of the cells in comparison with the negative control group, which was untreated with the culture medium or retinol and irradiated with UV light for 8 minutes.

[1] = system: adipose-derived stem cells; assay: Growth factor secretion (ELISA) of adipose-derived stem cells under chemical stimulation with vitamins; format: cell-based, human; details: for optimal concentration for synthesis of growth factors: added to serum-free culture medium of adipose-derived stem cells; for TGF β-1 expression / protein levels increased / VEGF expression / protein levels increased / bFGF expression / protein levels increased: chemical stimulation only, vitamin(s) at optimal concentration in serum-free medium, more than 48 hours, compared with control group
Protocol: In order to examine whether chemical stimulation using a vitamin promotes the synthesis and secretion of growth factors, in the present invention, adipose-derived stem cells were cultured in vitro using serum media and then using serum-free media as described above.
Preferably, after vitamin is added to the culture medium, the culture is incubated for more than 48 hours. When a mixture of vitamins is used, the optimal concentrations of vitamins are the same as above.
Specifically, 1 ml of the culture medium obtained by culturing adipose-derived stem cells to passage 3 in the conditions of Example 1-2 was centrifuged at 1200 g for 5 minutes, and then filtered through a […] filter to remove cell residue. […] Then, the concentration of each of growth factors VEGF, bFGF and TGF β-1 secreted in the culture medium was measured using a sandwich ELISA kit (Quantikine Human FGF basic Immunoassay, R&D systems).
To examine the concentrations of optimally diluted growth factors, the culture medium was serially diluted at the same concentration ratio with a calibration dilution in the kit, the concentration at the absorbance included in the range of the standard curve was determined, and the values included in the range of the standard curve were plotted as data. […] of each growth factor-containing culture media and standard solutions of growth factors was placed in each well coated with an antibody to each of the growth factors (Quantikine Human FGF basic Immunoassay, R&D systems) and was cultured at room temperature for 2 hours. After completion of the antigen-antibody binding reaction, each well was washed four times with wash buffer, and […] of a solution (Quantikine Human FGF basic Immunoassay, R&D systems), containing a secondary antibody to each of the growth factors, was placed in each well, followed by culture at room temperature for 2 hours. After completion of the second antibody binding reaction, each well was washed four times with wash buffer, […] of a color-developing reagent (tetramethylbenzidine, R&D systems) was added to each well, and then the absorbance of the medium was measured at 450 nm with an ELISA reader.
Adipose tissue-derived stem cells were cultured to passage 3 as described in Example (1-2), and when the cultured cells reached a confluence of 80%, the cells were collected with trypsin/EDTA. Then, the cells were accurately dispensed into a 6-well plate at a density of 25,000 cells/well. […]
Cells were cultured in this medium.
The cells were cultured in the above medium in a 5% carbon dioxide incubator at 37° C. for more than 48 hours, and then 200 μl of the culture medium supernatant was centrifuged at 3,000 rpm and filtered through 0.22-μm filter paper. Then, the concentrations of bFGF, VEGF and TGF β-1 in the filtrate were measured by the enzyme-linked immunosorbent assay (ELISA) of Example 2.
As a control group, a normal medium, was used, which was not subjected to physical stimulation or chemical stimulation. The increase in growth factors was compared between the control group and the culture medium subjected to physical stimulation and chemical stimulation.
In a culture process, cells were added to a serum-free medium prepared by adding a Ham's F-12 nutrient mixture to DMEM not containing a pH indicator such as phenol red, at a ratio of 1:1, and adding thereto 2 mM L-glutamine, 1 mM sodium pyruvate and 0.17% sodium bicarbonate. Then, the cells were cultured in a 5% carbon dioxide incubator at 37° C. for more than 48 hours. Then, 200 μl of the culture medium supernatant was centrifuged at 3,000 rpm, and then filtered through 0.22-μm filter paper. Then, the concentrations of bFGF, VEGF and TGF β-1 were measured by the enzyme-linked immunosorbent assay (ELISA) of Example 2.
The case where physical stimulation is used in combination with chemical stimulation will now be described.
For VEGF, a medium was irradiated with UV light and then subjected to scratch stimulation. […]

[2] = system: adipose-derived stem cells
fibroblast cells = assay: Cell proliferation potential: stem cell culture medium vs recombinant growth factor-containing media; format: cell-based, human; details: 5000 cells/well seeded; rFGF 50 ng, rVEGF 500 ng in normal media; stem cell medium at 100%
Protocol: Stem cells isolated from adipose tissue were cultured to passage-3 as described in Example (1-2), and then 10^6 cells of the stem cells were seeded into a T175 flask (area: 175 cm^2; volume: 500 ml) and cultured for 3 days. The culture medium was collected, and added at a concentration of 100% to a 6-well plate in which passage-4 fibroblast cells from the skin tissue of a child were dispensed at a density of 5000 cells/well. For the control group, a medium containing the same concentrations of recombinant growth factors VEGF and bFGF (Santa Cruz.) expressed in E. coli was used. Cell proliferation potential was compared between the adipose-derived stem cell culture medium and the recombinant growth factor-containing culture medium using a cell viability measurement kit.

Compound: CC1=C(/C=C/C(C)=C/C=C/C(C)=C/CO)C(C)(C)CCC1 [Retinol]
- Defensive effect (keratinocytes): 54%
- Defensive effect (keratinocytes; listed as retinol): 54%

Compound: Cc1cc2nc3c(=O)[nH]c(=O)nc-3n(C[C@H](O)[C@H](O)[C@H](O)CO)c2cc1C [vitamin B, riboflavin]
- optimal concentration for synthesis of growth factors [1]: 50 to 100 µM
- TGF β-1 expression / protein levels increased [1]: 1.56 times
- VEGF expression / protein levels increased [1]: 1.68 times and 1.56 times
- bFGF expression / protein levels increased [1]: 1.33 times

Compound: O=C1O[C@H]([C@@H](O)CO)C(O)=C1O [vitamin C]
- optimal concentration for synthesis of growth factors [1]: 10 to 100 µM
- TGF β-1 expression / protein levels increased [1]: 1.20 times
- VEGF expression / protein levels increased [1]: 1.68 times
- bFGF expression / protein levels increased [1]: 2.33 times
- cytotoxicity by MTT assay ([2]; at the optimal concentrations): no cytotoxicity occurred

Compound: rFGF: recombinant growth factor bFGF (Santa Cruz) expressed in E. coli
- cell proliferation potential, Cells (fibroblast cells): 8215.3 Cells

Compound: vitamin A
- optimal concentration for synthesis of growth factors [1]: 2 to 5 µM and 2 to 10 µM
- TGF β-1 expression / protein levels increased [1]: 1.20 times
- VEGF expression / protein levels increased [1]: 1.59 times
- bFGF expression / protein levels increased [1]: 1.62 times
- cytotoxicity by MTT assay [2]: no cytotoxicity occurred

Compound: vitamin D
- optimal concentration for synthesis of growth factors [1]: 5 to 10 µM
- TGF β-1 expression / protein levels increased [1]: 1.16 times
- VEGF expression / protein levels increased [1]: 1.30 times
- bFGF expression / protein levels increased [1]: 2.80 times
